Laboratory results taken from US9913838B2, “Methods of treating cancer using compositions comprising perillyl alcohol derivative” (NEONC TECHNOLOGIES INC., priority 2010, dated 2018).

Legend:
MDA-MB-231-br = experiment: Colony formation assay, MDA-MB-231-br; type: cell-based, human; conditions: for IC50: Homo sapiens, 48 h, read-out: IC50 (concentration required to decrease colony formation by 50%)
Method: (§1) Depending on the cell line (and plating efficiency), 200-350 cells were seeded into each well of a 6-well plate. […] Thereafter, the drugs were removed, fresh growth medium was added, and the cells were kept in culture undisturbed for 12-16 days, during which time the surviving cells spawned colonies of descendants. Colonies (defined as groups of >50 cells) were visualized by staining for 4 hours with 1% methylene blue (in methanol), and then were counted.
(§2) The cytotoxic potency of TMZ-POH, was analyzed by colony formation assay (CFA) in a variety of human breast cancer cell lines and compared to the cytotoxicity of TMZ. We used estrogen receptor positive cells MCF7 and T47D, the triple-negative lines MDA-MB-231, MDA-MB-468, and HCC-1937, and a brain-seeking variant of the 231 cell line, MDA-MB-231-br.

231-MGMT-2 = experiment: Colony formation assay, MGMT-transfected 231-MGMT-2; type: cell-based, human; conditions: for IC50: Homo sapiens, 48 h, read-out: IC50 (concentration required to decrease colony formation by 50%)
Method: as §1
(§3) In the case of O6-BG treatment, cells were pretreated with 10 μM O6-BG for one hour before addition of TMZ or TMZ-POH. After 24 hours, another 10 μM O6-BG was added to the medium. Another 24 hours later, drug-laced medium was removed, and fresh medium without drugs was added. Thereafter, cells remained undisturbed until staining with methylene blue.
MDA-MB-231 cells were co-transfected in 6-well plates with the use of Lipofectamine 2000 (Invitrogen, Carlsbad, Calif.) according to manufacturer's instructions. 2 μg pSV2MGMT (containing the human MGMT cDNA) was combined with 0.2 μg pSV2neo (containing the neomycin gene for selection of cells in G418). Both plasmids were provided by Bernd Kaina (Mainz, Germany). Individual clones of transfected cells were selected in medium containing 750 μg/mL G418 and propagated in 250 μg/mL G418. G418 was obtained as G418 disulfate salt from Sigma-Aldrich and dissolved in PBS at 75 mg/mL. Selection medium was removed from cells several days before experimental drug treatment.
To investigate the latter, we stably transfected MGMT-negative MDA-MB-231 cells with MGMT cDNA and isolated individual clones. […] Both clones were treated with increasing concentrations of TMZ-POH and TMZ and analyzed by CFA.

[1] = test system: D3H2LN cells implanted into the brains; experiment: Intracranial breast cancer tumor model in nude mice; type: in vivo; conditions: for median survival: TMZ-POH s.c., TMZ via gavage
Text: In FIG. 27A, all surviving animals were imaged again on days 21, 28, and 36. […] Arrow labeled Rx indicates the time period of treatment.
All animal protocols were approved by the Institutional Animal Care and Use Committee (IACUC) of University of Southern California, and all rules and regulations were followed during experimentation on animals. Athymic mice (Harlan, Inc., Indianapolis, Ind.) were implanted intracranially with 2×10^5 cells. A subline of MDA-MB-231 cells called D3H2LN was used, which was transfected with the firefly luciferase gene and had been selected for aggressive growth and metastasis in vivo. Ten days after intracranial implantation, efficient tumor take was confirmed in all animals via non-invasive whole-body bioluminescent imaging. For this purpose, mice were intravenously injected with 50 mg/kg D-Luciferin (Perkin Elmer, Waltham, Mass.) and imaged using the Xenogen IVIS-200 Imaging System (Caliper/Perkin Elmer). Images were analyzed by region-of-interest (ROI) analysis using the Living Image software package (Caliper/Perkin Elmer) to quantitate light output (radiance, i.e., photons per second per square centimeter per steradian).
Group 1 was the control group that received vehicle only (45% glycerol, 45% ethanol, 10% DMSO) via subcutaneous injection. Group 2 was the experimental group that received 25 mg/kg TMZ-POH via subcutaneous (s.c.) injection. Group 3 was the comparison group and animals received 25 mg/kg TMZ via gavage. Treatment was once per day for a period of 10 days (i.e., 10 treatments total). Thereafter, all surviving animals were imaged again, once per week.
We used D3H2LN cells, which are a bioluminescent variant of the MDA-MB-231 cell line with aggressive tumor growth in mice. These cells were implanted into the brains of nude mice, and 10 days later all animals were imaged for luciferase expression in order to confirm efficient tumor take.
Animals were distributed into three groups and treated once daily for 10 days with vehicle alone (control), 25 mg/kg TMZ-POH, or 25 mg/kg TMZ.

A172 human glioma cells = experiment: MTT cytotoxicity assay, A172 glioma cells; conditions: A172; result in words
Text: In vitro efficacy of the present composition can be determined using methods well known in the art. For example, the cytoxicity of the present monoterpene (or sesquiterpene) and/or the therapeutic agents may be studied by MTT [3-(4,5-dimethylthiazol-2-yl)-2,5-diphenyl tetrazolium bromide] cytotoxicity assay. MTT assay is based on the principle of uptake of MTT, a tetrazolium salt, by metabolically active cells where it is metabolized into a blue colored formazon product, which can be read spectrometrically. J. of Immunological Methods 65: 55 63, 1983. The cytoxicity of the present monoterpene (or sesquiterpene) derivative and/or the therapeutic agents may be studied by colony formation assay. Functional assays for inhibition of VEGF secretion and IL-8 secretion may be performed via ELISA. Cell cycle block by the present monoterpene (or sesquiterpene) derivative and/or the therapeutic agents may be studied by standard propidium iodide (PI) staining and flow cytometry. Invasion inhibition may be studied by Boyden chambers. In this assay a layer of reconstituted basement membrane, Matrigel, is coated onto chemotaxis filters and acts as a barrier to the migration of cells in the Boyden chambers. Only cells with invasive capacity can cross the Matrigel barrier. Other assays include, but are not limited to cell viability assays, apoptosis assays, and morphological assays.
First cytotoxicity assays were carried out after cells were treated with dimethyl-celecoxib (DMC) alone.
Then U87, A172 and U251 cells were treated with dimethyl celecoxib bisPOH carbamate (POH−DMC) (e.g., synthesized by the method in Example 1), and the MTT cytotoxicity assays performed (FIG. 2).
First cytotoxicity assays were carried out after cells were treated with temozolomide (TMZ) alone, the standard alkylating agent used in the treatment of malignant gliomas.
Then TMZ-resistant glioma cell lines U87, A172 and U251 cells were treated with TMZ-POH (e.g., synthesized by the method in Example 3).
To compare the cytotoxicity of Rolipram POH Carbamate (POH-Rolipram) (e.g., synthesized by the method in Example 5) with rolipram, […] inducing differentiation and apoptosis in glioma cells, A172, U87, U251 and LN229 human glioma cells were treated with either POH-Rolipram or rolipram for 48 hours.

MDA-MB-231 = experiment: cells; conditions: for reduction of colony formation: 10 μM (each), 48 hours; for IC50: Homo sapiens, MDA-MB-231, 48 h, read-out: IC50 (concentration required to decrease colony formation by 50%)
Method: as §1, §3, §2
Thus, we tested whether simply mixing the two compounds TMZ and POH could mimic the effects of the TMZ-POH conjugate. MDA-MB-231 cells were treated with the individual compounds (TMZ-POH, TMZ or POH) alone, or with an equimolar mix of TMZ plus POH, and cell survival was analyzed by CFA.

[2] = 25 mg/kg once daily for 10 days

Compound	IC50 (MDA-MB-231-br) [µM]	IC50 (231-MGMT-2) [µM]	additional survival after the termination of treatment [1, 2] [days]	median survival [1, 2] [days]	cytotoxicity (MTT assay) (A172 human glioma cells)	reduction of colony formation (MDA-MB-231; MDA-MB-231)	IC50 (MDA-MB-231) [µM]	Differential (−fold) (MDA-MB-231-br; fold increase in potency of TMZ-POH compared to TMZ, MDA-MB-231-br)	colony formation (CFA) (MDA-MB-231-br; low micromolar concentrations, 48 hours, in words)	Differential (−fold) (231-MGMT-2; fold increase in potency of TMZ-POH compared to TMZ, 231-MGMT-2)	status of animals by day 36 ([1]; 25 mg/kg once daily for 10 days, in words)	bioluminescent imaging after 10-day treatment period ([1]; 25 mg/kg once daily, in words)	increase of ROI radiance ([1]; between days 10 and 21, representative mouse, 25 mg/kg once daily 10 days) [fold]	ROI radiance ([1]; day 10, representative mouse)	ROI radiance ([1]; day 21, representative mouse)	ROI radiance ([1]; day 43, representative mouse)	Differential (−fold) (MDA-MB-231; fold increase in potency of TMZ-POH compared to TMZ, MDA-MB-231)
Cn1nnc2c(C(N)=O)ncn2c1=O [TMZ, temozolomide, reference compound]	3.8	212	8	28	minimal cytotoxicity	about 50%	9.9	–	–	–	–	–	–	–	–	–	–
C=C(C)[C@@H]1CC=C(COC(=O)NC(=O)c2ncn3c(=O)n(C)nnc23)CC1 [TMZ-POH]	1.2	34	30	50	substantially higher kill rates	about 95%	2.3	3.2 −fold	prevented colony formation	6.2 −fold	still alive with no obvious signs of distress	only small changes in radiance	1.7	1.11E7 photons per second per square	1.92E7 photons per second per square	1.88E8 photons per second per square	4.3 −fold
